In US7615380B2, “Methods for modulating an immune response by modulating KRC activity” (President and Fellows of Harvard College, priority 2001, dated 2009):

What was measured:
JNK = JNK in vitro kinase assay after transfection of 293 cells; type: cell-based, human; details: 293 cells cotransfected with TRAF2, 24 hours
Method: Inhibition of TRAF2 (A) and TNFα (B, C) mediated JNK/SAPK activation by ectopic expression of KRC. (A) 293 T cells were transfected with 400 ng of TRAF2 and 2 μg of the indicated expression vector. Twenty-four hours after the transfection, the cells were harvested and lysed, and the endogenous JNK was precipitated with 5 μg of GST-cJUN (1-79) for 4 hours. JNK activity was determined by using GST-cJUN (1-79) as a substrate. (B,C) 293 T cells were cotransfected with vectors encoding HA-tagged JNK2 (500ng) and the indicated expression vector (2 μg). Twenty-four hours after the transfection cells were stimulated for 10 min with 10 ng/ml of TNFα and cells harvested at varying time points. JNK activity was assayed with GST-cJUN (1-79) as substrate.
Anti-HA or anti-FLAG immunoprecipitates were used for immune complex kinase assays that were performed at 30° C. for 30 min with 1 μg of substrate, 10 μCi of γ^32 P ATP, and 10 μM ATP in 30 μl of kinase buffer (20 mM HEPES, pH 7.4, 10 mM MgCl2, 25 mM β-glycerophosphate, 50 μm NA3VO4, and 50 μm DTT). The substrate was GST-c-JUN.

c-Jun/c-Fos AP-1 = assay: c-Jun/c-Fos protein stability time course with cycloheximide; type: cell-based
Method: The above experiments mapped the interaction site of KRC with c-Jun to aa 204-1055 of KRC. The interaction of full-length KRC with c-Jun was tested. […] Time course experiments were performed in which overexpressed sense KRC or an antisense KRC previously shown to block production of endogenous KRC protein were coimmunoprecipitated with overexpressed c-Jun and c-Fos. […] The same set of experiments were performed using c-Fos, a very short-lived cellular protein. […] The ability of KRC to promote the degradation of other fos family members Fra1, Fra2 and Fos B was also tested (FIG. 23(D)). […] The protein stability of V-fos was not affected by altering levels of KRC by sense or antisense overexpression.

AP-1 = AP-1 luciferase/GFP reporter in 293T cells; type: cell-based, human
Method: FIG. 21(A) 293T cells were transfected with c-Jun and myc-KRCtr. 48 hours later, lysates were immunoprecipitated with anti-Myc antibody. Immunoprecipitates were probed by western blotting with anti-c-Jun antibody. FIG. 21(B) (left panel) 293T cells were cotransfected with c-Jun and full length His-KRC. 48 hours later, lysates were immunoprecipitated with anti-His antibody (DE8 Omniprobe) and precipitates were probed by western blotting with anti-c-Jun antibody. (right panel) In vitro translated and S35-labelled c-Jun and His-KRCtr were mixed and immunoprecipitated with anti-His antibody. Recovered c-Jun protein was visualized by autoradiography. FIG. 21(C) Jurkat or EL4 T cells were stimulated with PMA plus ionomycin for 45 minutes. Lysates were immunoprecipitated with anti-c-Jun antibody, and immunoprecipitates were probed with specific anti-KRC rabbit antisera. […] 24 hours later, Luciferase activity was determined as above. […] 24 hours later, luciferase activity was determined as above. […]
To examine the functional consequences of AP-1 degradation by KRC, cotransfection experiments in 293T cells with sense or antisense KRC together with a luciferase-tagged AP-1 reporter construct were performed. […] Conversely, cotransfection of antisense KRC increased AP-1 transactivation as evidenced by an increased number of GFP+ cells as well as an increase in the intensity of fluorescence per cell in. […]

“KRC: full-length KRC zinc finger protein (SEQ ID NO:2) overexpressed from an expression vector” was tested, and the “TRAF2-dependent JNK activation” value (JNK) was “blocked JNK activation only partially”, the c-Jun degradation (c-Jun/c-Fos AP-1; low dose cycloheximide) was “rapid degradation of c-Jun” and the “stability of the c-Fos protein” value (c-Jun/c-Fos AP-1; presence of cycloheximide) was “compromised”. For the same substance, the “c-Jun and c-Jun plus c-Fos AP-1 activity enhancement” value (AP-1; AP-1 luciferase reporter) was “approximately 5 fold” and the “AP-1 activity (luciferase-tagged AP-1 reporter)” value (AP-1; sense or antisense KRC cotransfection) was “decreased stimulation of AP-1 activity”.
